Measured values published in patent EP4786487A1, “PEPTIDE” (Peptidream Inc, priority 2023, dated 2025).
Where two headings read alike, the source gives them in different places. Starred links: 1 amine or outer side, 2 acyl side, 3 side chain; linkers in the order of their positions; H or OH if unused. Positions of bridges follow the written chain, without caps; N, C: chain ends. Non-standard residues stand in square brackets, D forms with d. Residues, ends and D or L forms follow the SMILES beside them. Groups on a side chain read outwards from the residue. *: point of attachment. Ala(1-CH2CO2H-4-piperidyl) = N[C@@H](CC1CCN(CC(=O)O)CC1)C(=O)O; Phe(4-(2-MeO-Ph)) = COc1ccccc1-c1ccc(C[C@H](N)C(=O)O)cc1; Phe(3-OCH2COOH) = N[C@@H](Cc1cccc(OCC(=O)O)c1)C(=O)O; Trp(1-Ph) = N[C@@H](Cc1cn(-c2ccccc2)c2ccccc12)C(=O)O; NMePhe(3-Ph) = CN[C@@H](Cc1cccc(-c2ccccc2)c1)C(=O)O; Trp(6-OH) = N[C@@H](Cc1c[nH]c2cc(O)ccc12)C(=O)O; Phe(4-COOH) = N[C@@H](Cc1ccc(C(=O)O)cc1)C(=O)O; Trp(7-aza) = N[C@@H](Cc1c[nH]c2ncccc12)C(=O)O; Piperazinyl(4-CH2COOH) = O=C(O)CN1CCN(*)CC1; Gly(decyl) = CCCCCCCCCC[C@H](N)C(=O)O; Gly(N(CH2)3COOH) = O=C(O)CCCNCC(=O)O; X1 = CCCCCCC[C@H](N[*:1])C(=O)[*:2]; X5 = CC(=O)NCCCN(CC(=O)[*:2])[*:1]; NMeF = CN[C@@H](Cc1ccccc1)C(=O)O; 4Pal = N[C@@H](Cc1ccncc1)C(=O)O; NMeE = CN[C@@H](CCC(=O)O)C(=O)O; Cha = N[C@@H](CC1CCCCC1)C(=O)O; Gly(N(CH2)3NH2) = NCCCNCC(=O)O; NMeA = CN[C@@H](C)C(=O)O; CO = O=C([*:1])[*:2]; Sar = CNCC(=O)O

Experiments:
Myostatin = biological target: T1, Myostatin (Homo sapiens, UniProt O14793); assay: HepG2 reporter gene assay, Evaluation Procedure (2): 2-concentrations assay, myostatin inhibition; assay type: cell-based
T1 construct: active myostatin (also called mature myostatin) is a homodimer consisting of two C-terminal growth factor domains; purchased R&D systems 788-G8/CF
T1 sequence (O14793 267-375): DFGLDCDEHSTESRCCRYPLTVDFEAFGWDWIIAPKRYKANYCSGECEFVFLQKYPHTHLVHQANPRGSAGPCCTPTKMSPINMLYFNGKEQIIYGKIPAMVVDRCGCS
Method in brief: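 Myostatin inhibition was measured in a luciferase reporter assay using HepG2 cells transfected with a pGL3 vector containing 12 CAGA repeats upstream of luciferase. After 20 to 24 hours with 10 ng/mL myostatin, cells received One-Glo:PBS (1:1) at 100 µL/well, were shaken for 5 min, and 20 µL/well was moved to 384-well plates and read on an Envision 2104.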

GDF-11 = biological target: T2, GDF-11 (Homo sapiens, UniProt O95390); assay: HepG2 reporter gene assay, Evaluation Procedure (2): 2-concentrations assay, GDF-11 inhibition; assay type: cell-based; conditions: for inhibition at 0.03 µM: HepG2, peptide 30nM, read-out: GDF11 Inhibition 30nM; for inhibition at 0.03 µM / inhibition at 0.1 µM: GDF-11 10 ng/mL; for inhibition at 0.1 µM: HepG2, peptide 100nM, read-out: GDF11 Inhibition 100nM
T2 construct: purchased R&D systems 1958-GD-G8/CF
T2 sequence (O95390 299-407): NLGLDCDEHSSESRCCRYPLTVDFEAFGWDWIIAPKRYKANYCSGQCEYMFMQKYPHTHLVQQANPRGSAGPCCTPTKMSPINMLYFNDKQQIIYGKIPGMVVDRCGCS
Method in brief: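 HepG2 cells carrying the transfected pGL3(CAGA)12-luc reporter, a pGL3 vector with luciferase placed downstream of 12 CAGA repeats, were stimulated with GDF-11 at a final 10 ng/mL together with test peptide. Blank wells received no GDF-11 and no peptide. Plates were incubated 20 to 24 hours at 37°C with 5% CO2. Luminescence from One-Glo substrate was read to calculate percent inhibition.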

[1] = peptide 30nM, Myostatin 10 ng/mL, HepG2, read-out: Myostatin Inhibition 30nM
[2] = peptide 100nM, Myostatin 10 ng/mL, HepG2, read-out: Myostatin Inhibition 100nM
[3] = HepG2, read-out: inhibition rate (myostatin inhibition assay)
[4] = Table 7-3/7-4, myostatin 10 ng/mL, peptide at the higher of the 2 concentrations, HepG2, read-out: inhibition rate (myostatin inhibition assay)
[5] = Table 7-3/7-4, myostatin 10 ng/mL, peptide at the lower of the 2 concentrations, HepG2, read-out: inhibition rate (myostatin inhibition assay)
[6] = HepG2, first GDF-11 column of Table 7-3/7-4, GDF-11 10 ng/mL, peptide at the lower of the 2 concentrations, read-out: inhibition rate (GDF-11 inhibition assay)
[7] = HepG2, second GDF-11 column of Table 7-3/7-4, GDF-11 10 ng/mL, peptide at the higher of the 2 concentrations, read-out: inhibition rate (GDF-11 inhibition assay)

inhibition at 0.03 µM (Myostatin; [1]) [%]	inhibition at 0.1 µM (Myostatin; [2]) [%]	inhibition at 0.03 µM (GDF-11) [%]	inhibition at 0.1 µM (GDF-11) [%]	SMILES	other results
94	99	0	3	CCCCCCC[C@@H]1NC(=O)[C@H](Cc2ccccc2)N(C)C(=O)[C@H](CCCNC(=N)N)NC(=O)[C@H](Cc2ccc(C(=O)O)cc2)NC(=O)[C@H](Cc2ccncc2)NC(=O)CN(C)C(=O)[C@H]([C@@H](C)CC)NC(=O)[C@H](Cc2ccccc2)N(C)C(=O)[C@H](Cc2ccc(O)cc2)NC(=O)[C@H](Cc2c[nH]c3ccccc23)NC(=O)[C@H](C)NC(=O)CN(CCCNC(C)=O)C(=O)CSC[C@H](C(=O)O)NC(=O)[C@H](Cc2ccccc2)N(C)C(=O)[C@H](C)N(C)C1=O [Myostatin_99_v225] ({CH2CO}-[X5]AWY[NMeF]I[Sar][4Pal][Phe(4-COOH)]R[NMeF][X1][NMeA][NMeF][dC]-OH; thioether N-15)	
69	88	0	0	CC[C@H](C)[C@@H]1NC(=O)[C@H](Cc2ccccc2)N(C)C(=O)[C@H](Cc2ccc(O)cc2)NC(=O)[C@H](Cc2c[nH]c3ncccc23)NC(=O)[C@H](C)NC(=O)CN(CCCC(=O)O)C(=O)CSC[C@H](C(=O)N[C@H](CO)C(=O)N[C@H](CO)C(=O)N[C@H](CO)C(=O)N[C@H](CCCCN)C(=O)O)NC(=O)[C@H](Cc2ccccc2)N(C)C(=O)[C@H](C)N(C)C(=O)[C@H](CC(C)C)NC(=O)[C@H](Cc2ccccc2)N(C)C(=O)[C@H](CCCNC(=N)N)NC(=O)[C@H](Cc2ccc(C(=O)O)cc2)NC(=O)[C@H](Cc2ccccc2)NC(=O)CN(C)C1=O [Myostatin_99_v37] ({CH2CO}-[Gly(N(CH2)3COOH)]A[Trp(7-aza)]Y[NMeF]I[Sar]F[Phe(4-COOH)]R[NMeF]L[NMeA][NMeF][dC][dS][dS][dS][dK]-OH; thioether N-15)	
19	65	0	0	CC[C@H](C)[C@@H]1NC(=O)[C@H](Cc2ccccc2)N(C)C(=O)[C@H](Cc2ccc(O)cc2)NC(=O)[C@H](Cc2c[nH]c3ccccc23)NC(=O)[C@H](CCCNC(=N)N)NC(=O)CN(CCCN)C(=O)CSC[C@@H](C(N)=O)NC(=O)[C@H](Cc2ccccc2)N(C)C(=O)[C@H](C)N(C)C(=O)[C@H](CC(C)C)NC(=O)[C@H](Cc2ccccc2)N(C)C(=O)[C@H](CCCNC(=N)N)NC(=O)[C@H](Cc2ccc(O)cc2)NC(=O)[C@H](Cc2ccc(O)cc2)NC(=O)CN(C)C1=O [Myostatin_000099_01ApG] ({CH2CO}-[Gly(N(CH2)3NH2)]RWY[NMeF]I[Sar]YYR[NMeF]L[NMeA][NMeF]C-NH2; thioether N-15)	

Continued, molecule first:

SMILES	inhibition at 0.03 µM (Myostatin; [1]) [%]	inhibition at 0.1 µM (Myostatin; [2]) [%]	inhibition at 0.03 µM (GDF-11) [%]	inhibition at 0.1 µM (GDF-11) [%]	other results
CCCCCCC[C@@H]1NC(=O)[C@H](Cc2ccccc2)N(C)C(=O)[C@H](CCCNC(=N)N)NC(=O)[C@H](Cc2ccc(C(=O)O)cc2)NC(=O)[C@H](Cc2ccncc2)NC(=O)CN(C)C(=O)[C@H]([C@@H](C)CC)NC(=O)[C@H](Cc2ccccc2)N(C)C(=O)[C@H](Cc2ccc(O)cc2)NC(=O)[C@H](Cc2c[nH]c3ccccc23)NC(=O)[C@H](C)NC(=O)[C@H](CC2CCN(CC(=O)O)CC2)NC(=O)CSC[C@H](C(=O)O)NC(=O)[C@H](Cc2ccccc2)N(C)C(=O)[C@H](C)N(C)C1=O [Myostatin_99_v232] ({CH2CO}-[Ala(1-CH2CO2H-4-piperidyl)]AWY[NMeF]I[Sar][4Pal][Phe(4-COOH)]R[NMeF][X1][NMeA][NMeF][dC]-OH; thioether N-15)	58	84	0	0	
CCCCCCC[C@@H]1NC(=O)[C@H](Cc2ccccc2)N(C)C(=O)[C@H](CCCNC(=N)N)NC(=O)[C@H](Cc2ccc(C(=O)O)cc2)NC(=O)[C@H](Cc2ccc(-c3ccccc3OC)cc2)NC(=O)[C@H](C)N(C)C(=O)[C@H]([C@@H](C)CC)NC(=O)[C@H](Cc2ccccc2)N(C)C(=O)[C@H](Cc2ccc(O)cc2)NC(=O)[C@H](Cc2c[nH]c3cc(O)ccc23)NC(=O)[C@H](C)NC(=O)CN(CCCC(=O)O)C(=O)CSC[C@H](C(=O)O)NC(=O)[C@H](Cc2ccccc2)N(C)C(=O)[C@H](CCC(=O)O)N(C)C1=O [Myostatin_99_v323] ({CH2CO}-[Gly(N(CH2)3COOH)]A[Trp(6-OH)]Y[NMeF]I[NMeA][Phe(4-(2-MeO-Ph))][Phe(4-COOH)]R[NMeF][X1][NMeE][NMeF][dC]-OH; thioether N-15)					inhibition at 0.03 µM (Myostatin; [3]): 97%; inhibition at 0.1 µM (Myostatin; [3]): 99%; inhibition (GDF-11; HepG2, read-out: inhibition rate (GDF-11 inhibition assay), Table 7-3/7-4, GDF-11 10 ng/mL, peptide at the higher of the 2 concentrations): 0%; inhibition (GDF-11; HepG2, read-out: inhibition rate (GDF-11 inhibition assay), Table 7-3/7-4, GDF-11 10 ng/mL, peptide at the lower of the 2 concentrations): 0%
CCCCCCC[C@@H]1NC(=O)[C@H](Cc2ccccc2)N(C)C(=O)[C@H](CCCNC(=N)N)NC(=O)[C@H](Cc2ccc(C(=O)O)cc2)NC(=O)[C@H](Cc2cccc(OCC(=O)O)c2)NC(=O)[C@H](C)N(C)C(=O)[C@H]([C@@H](C)CC)NC(=O)[C@H](Cc2ccccc2)N(C)C(=O)[C@H](Cc2ccc(O)cc2)NC(=O)[C@H](Cc2c[nH]c3ccccc23)NC(=O)[C@H](C)NC(=O)CN(CCCC(=O)O)C(=O)CSC[C@H](C(=O)N[C@@H](CCCCNC(=O)N2CCN(CC(=O)O)CC2)C(=O)O)NC(=O)[C@H](Cc2ccccc2)N(C)C(=O)[C@H](C)N(C)C1=O [Myostatin_99_v428] ({CH2CO}-[Gly(N(CH2)3COOH)]AWY[NMeF]I[NMeA][Phe(3-OCH2COOH)][Phe(4-COOH)]R[NMeF][X1][NMeA][NMeF][dC]K([CO-Piperazinyl(4-CH2COOH)])-OH; thioether N-15)					inhibition at 0.1 µM (Myostatin; [4]): 99%; inhibition at 0.03 µM (Myostatin; [5]): 96%; inhibition (GDF-11; [6]): 0%; inhibition (GDF-11; [7]): 0%
CCCCCCCCCC[C@@H]1NC(=O)[C@H](CC2CCCCC2)NC(=O)[C@H](CCCNC(=N)N)NC(=O)[C@H](Cc2ccc(C(=O)O)cc2)NC(=O)[C@H](Cc2cccc(OCC(=O)O)c2)NC(=O)[C@H](C)N(C)C(=O)[C@H]([C@@H](C)CC)NC(=O)[C@H](Cc2ccccc2)N(C)C(=O)[C@H](Cc2ccc(O)cc2)NC(=O)[C@H](Cc2cn(-c3ccccc3)c3ccccc23)NC(=O)[C@H](C)NC(=O)[C@H](C)NC(=O)CSC[C@H](C(=O)N2CCN(CC(=O)O)CC2)NC(=O)[C@H](Cc2cccc(-c3ccccc3)c2)N(C)C(=O)[C@H](CCC(=O)O)N(C)C1=O [Myostatin_99_v332] ({CH2CO}-AA[Trp(1-Ph)]Y[NMeF]I[NMeA][Phe(3-OCH2COOH)][Phe(4-COOH)]R[Cha][Gly(decyl)][NMeE][NMePhe(3-Ph)][dC]-{Piperazinyl(4-CH2COOH)}; thioether N-15)					inhibition at 0.1 µM (Myostatin; [4]): 100%; inhibition at 0.03 µM (Myostatin; [5]): 100%; inhibition (GDF-11; [6]): 0%; inhibition (GDF-11; [7]): 0%
CCCCCCCCCC[C@@H]1NC(=O)[C@H](CC2CCCCC2)NC(=O)[C@H](CCCNC(=N)N)NC(=O)[C@H](Cc2ccc(C(=O)O)cc2)NC(=O)[C@H](CCCCNC(=O)N2CCN(CC(=O)O)CC2)NC(=O)CN(C)C(=O)[C@H]([C@@H](C)CC)NC(=O)[C@H](Cc2ccccc2)N(C)C(=O)[C@H](Cc2ccc(O)cc2)NC(=O)[C@H](Cc2c[nH]c3ccccc23)NC(=O)[C@H](C)NC(=O)[C@H](C)NC(=O)CSC[C@H](C(=O)N2CCN(CC(=O)O)CC2)NC(=O)[C@H](Cc2ccccc2)N(C)C(=O)[C@H](CCC(=O)O)N(C)C1=O [Myostatin_99_v269] ({CH2CO}-AAWY[NMeF]I[Sar]K([CO-Piperazinyl(4-CH2COOH)])[Phe(4-COOH)]R[Cha][Gly(decyl)][NMeE][NMeF][dC]-{Piperazinyl(4-CH2COOH)}; thioether N-15)	100	100	3	59	
